Literature values in publication PMC6182381, “Population Pharmacokinetics and Exposure-Response Relationships of Naldemedine” (Pharmaceutical Research, 2018).

Set-up: method as in earlier work
Settings: cited from earlier work

SMILES: N=C(N)c1ccccc1 [Benzamidine]
- metabolite excreted in feces: ~20 % of the administered dose of naldemedine
- metabolite excreted in urine: approximately 32 % of the administered dose of naldemedine
